Assay results: the supplement of paper PMC10307832

Legend:
Test in all cases: relative viability (nuclei count vs DMSO), 5 days (fraction); higher = more cells survive
[1] = compound: COc1cc2nc(N3CCCN(C)CC3)nc(NC3CCN(Cc4ccccc4)CC3)c2cc1OC + CS(=O)(=O)CCNCc1ccc(-c2ccc3ncnc(Nc4ccc(OCc5cccc(F)c5)c(Cl)c4)c3c2)o1 [Lapatinib] (partner 2 µM)
Outline: (§1)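 Each reported value is a median over duplicate plates. It expresses relative viability: treated-well nuclei count divided by vehicle-well nuclei count. Lung cancer cell lines in 1536-well plates were dosed by pin tool a day after seeding, alone with one drug or with a fixed anchor-drug dose plus five library-drug doses (not always all listed) in √10 steps, and nuclei were counted after 5 days.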

AZD6482 + Lapatinib = compound: Cc1cc([C@@H](C)Nc2ccccc2C(=O)O)c2nc(N3CCOCC3)cc(=O)n2c1 [AZD6482] + CS(=O)(=O)CCNCc1ccc(-c2ccc3ncnc(Nc4ccc(OCc5cccc(F)c5)c(Cl)c4)c3c2)o1 [Lapatinib] (partner 2 µM)
Outline: as §1

[2] = compound: COc1cc2nc(N3CCCN(C)CC3)nc(NC3CCN(Cc4ccccc4)CC3)c2cc1OC + CS(=O)(=O)N1CCN(Cc2cc3nc(-c4cccc5[nH]ncc45)nc(N4CCOCC4)c3s2)CC1 [Pictilisib] (partner 1 µM)
Outline: as §1

AZD6482 + Alpelisib = compound: Cc1cc([C@@H](C)Nc2ccccc2C(=O)O)c2nc(N3CCOCC3)cc(=O)n2c1 [AZD6482] + Cc1nc(NC(=O)N2CCC[C@H]2C(N)=O)sc1-c1ccnc(C(C)(C)C(F)(F)F)c1 [Alpelisib] (partner 2 µM)
Outline: as §1

Row | Cell Line | relative viability ([1]; first compound 0.2 µM) | relative viability ([1]; first compound 0.6325 µM) | relative viability ([1]; first compound 2 µM) | relative viability ([1]; first compound 6.325 µM) | relative viability (AZD6482 + Lapatinib; first compound 0.08 µM) | relative viability (AZD6482 + Lapatinib; first compound 0.253 µM) | relative viability (AZD6482 + Lapatinib; first compound 0.8 µM) | relative viability (AZD6482 + Lapatinib; first compound 2.53 µM) | relative viability (AZD6482 + Lapatinib; first compound 8 µM) | relative viability ([2]; first compound 0.2 µM) | relative viability ([2]; first compound 0.6325 µM) | relative viability ([2]; first compound 2 µM) | relative viability ([2]; first compound 6.325 µM) | relative viability (AZD6482 + Alpelisib; first compound 0.08 µM) | relative viability (AZD6482 + Alpelisib; first compound 0.253 µM) | relative viability (AZD6482 + Alpelisib; first compound 0.8 µM) | relative viability (AZD6482 + Alpelisib; first compound 2.53 µM) | relative viability (AZD6482 + Alpelisib; first compound 8 µM)
1 | HCC-44 | 1.01 | 0.989 | 1.05 | 1.04 | 0.909 | 1.06 | 1.13 | 1.1 | 0.882 | 0.616 | 0.693 | 0.563 | 0.605 | 0.546 | 0.596 | 0.649 | 0.505 | 0.435
2 | HCC-827 | 0.181 | 0.196 | 0.198 | 0.193 | 0.164 | 0.174 | 0.196 | 0.177 | 0.177 | 1.04 | 1.09 | 0.636 | 0.886 | 0.613 | 0.506 | 0.456 | 0.33 | 0.351
3 | NCI-H2347 | 0.901 | 1.01 | 0.954 | 0.911 | – | 0.946 | 0.988 | 0.653 | 0.763 | 0.702 | 0.686 | 0.574 | 0.549 | – | 0.743 | 0.891 | 0.514 | 0.719
4 | PC-14 | 0.334 | 0.339 | 0.372 | 0.308 | 0.257 | 0.234 | 0.255 | 0.196 | 0.219 | 0.676 | 0.541 | 0.838 | 0.239 | 0.857 | 0.882 | 0.832 | 0.663 | 0.807
5 | NCI-H1651 | 0.785 | 0.807 | 0.834 | 0.855 | 0.776 | 0.608 | 0.77 | 0.563 | 0.522 | 0.638 | 0.591 | 0.73 | 0.462 | 0.791 | 0.778 | 0.712 | 0.42 | 0.777
6 | HARA | 0.793 | 0.86 | 0.823 | 0.804 | 0.707 | 0.503 | 0.919 | – | 0.483 | 0.395 | 0.53 | 0.453 | 0.308 | 0.459 | 0.762 | 0.849 | – | 0.708
7 | NCI-H1650 | 0.75 | 0.813 | 0.915 | 0.579 | 0.754 | – | 0.688 | 0.602 | 0.681 | 0.543 | 0.699 | 0.544 | 0.548 | – | – | – | – | –
8 | NCI-H1395 | 0.987 | 1.08 | 1.29 | 0.831 | 0.787 | 0.741 | 0.836 | 0.511 | 0.562 | 0.596 | 0.589 | 0.647 | 0.486 | 0.696 | 0.573 | 0.732 | 0.5 | 0.587
9 | LU99A | 0.909 | 0.93 | 1.1 | 0.898 | 0.972 | 0.881 | 0.938 | 0.751 | 0.866 | 0.322 | 0.304 | 0.297 | 0.278 | 0.452 | 0.441 | 0.619 | 0.372 | 0.421
10 | NCI-H1355 | 1.01 | 0.992 | 1.05 | 0.951 | 0.694 | 0.903 | 0.956 | 0.678 | 0.717 | 0.434 | 0.442 | 0.472 | 0.476 | 0.523 | 0.621 | 0.6 | 0.452 | 0.592
11 | HCC-78 | 0.704 | 1.06 | 1.03 | 0.882 | 0.512 | 0.683 | 1.52 | 0.255 | 0.503 | 0.206 | 0.212 | 0.207 | 0.188 | 0.222 | 0.179 | 0.212 | 0.159 | 0.194
12 | NCI-H1563 | 0.913 | 0.982 | 0.81 | 0.734 | 0.902 | 0.842 | 0.876 | 0.674 | 0.778 | 0.566 | 0.622 | 0.558 | 0.55 | 0.753 | 0.703 | 0.672 | 0.661 | 0.688
13 | HCC-15 | 0.888 | 0.789 | 0.824 | 0.765 | 0.873 | 0.792 | 0.882 | 0.737 | 0.914 | 0.744 | 0.883 | 0.701 | 0.618 | 0.856 | 0.797 | 0.861 | 0.736 | 0.772
14 | EKVX | 0.194 | 0.218 | 0.232 | 0.223 | 0.173 | 0.342 | 0.181 | 0.141 | 0.167 | 0.466 | 0.46 | 0.357 | 0.4 | 0.516 | 0.46 | 0.591 | 0.336 | 0.581
15 | NCI-H2087 | 1.18 | 0.744 | 1.08 | 0.964 | 1.22 | 1.12 | 1.43 | 0.864 | 0.98 | 0.752 | 0.996 | 0.872 | 0.834 | 0.953 | 1.06 | 1.17 | 0.819 | 0.972
16 | LCLC-103H | – | – | – | – | – | – | – | – | – | 0.635 | 0.666 | 0.656 | 0.585 | 0.877 | 0.747 | 0.701 | 0.605 | 0.553
17 | ChaGo-K-1 | – | – | – | – | – | – | – | – | – | 0.752 | 0.87 | 1.12 | 0.49 | – | – | – | – | –
18 | NCI-H441 | – | – | – | – | – | – | – | – | – | 0.407 | – | 0.48 | 0.38 | 0.65 | 0.834 | 0.592 | 0.532 | 0.66
